# Laboratory results published in patent US20160022751A1, “NOVEL COMPOSITION FOR TREATING ALZHEIMER'S DISEASE AND IMPROVING COGNITIVE FUNCTION OF ALZHEIMER'S PATIENTS” (GANGNEUNG-WONJU NATIONAL UNIVERSITY INDUSTRY ACADEMY …, priority 2014, published 2016).
# Tests used:
# ChAT = ChAT mRNA expression in N2a cells (RT-PCR); format: cell-based, mouse; conditions: single ginsenoside (FIG. 7A)
# Source text: (§1) The present inventor reported that ChAT overexpressing human neural stem cells restored cognition with an increase of ACh levels in rat model (Park et al., Exp. Neurol., 234: 521-526, 2012). This implies that the increase of the ChAT level in cholinergic neurons plays a critical role in cognition enhancement and thus the cholinergic gene locus “VAChT/ChAT” can be a putative target for therapeutic approaches on AD. Thus the present inventor prepared transfected Neuro-2a (N2a) cells that over-express the human ChAT and APP (designated as “N2a.hChAT” and “N2a.hAPPswe”, respectively, FIG. 6) and the N2a.hChAT and N2a.hAPPswe cells were treated with the faction groups 1 to 5 isolated in the Example 3 at a centration of 50 μg/ml. Neuro-2a mouse neuroblastoma cells (Korean Cell Line Bank, Korea) were grown in DMEM supplemented with 10% fetal bovine serum (FBS), 100 U/m penicillin, and 100 μg/ml streptomycin (Invitrogen, USA) under 5% CO2 at 37° C. in tissue culture flasks. For all experiments, cells were grown to greater than 90% confluency and subjected to no more than 20 cell passages. The medium was changed every 2-3 days. Subconfluent cells were harvested and seeded at a density of 5×10^5 cells or 5×10^6 cells in poly-L-lysine-coated 35 mm or 60 mm culture plates. To recover the cells that are not completely saturated for analysis, poly-L-lysine coated 35 mm or 60 mm culture was seeded at a concentration of 5×10^5 or 5×10^6 cells on the plates. The extent of expression of hChAT and APP in the N2a.hChAT and N2a.hAAPswe cells treated with the faction groups 1 to 5 was quantified with RT-PCR using primers described in the below Table 2. At this time, beta-actin was used as an internal control.
# (§2) Specifically, total RNA extracts from N2a cells were prepared using the Trizol method (Invitrogen, USA) and cDNA was synthesized from RNA by reverse transcription of 1 μg of total RNA using a reverse transcription system (Improm-II, Promega, USA) and oligo dT primers in a total volume of 20 μL. PCR amplification was performed using the primers described in Table 2 (Bioneer, Korea). Quantitative real-time PCR reactions were run on a Rotor-Gene 6000 (Corbett Research, Australia) using SensiMix™ SYBR Hi-ROX Kit (Bioline, U.K.) in 20 μL reaction mixtures. Each real-time-PCR master mix contained 10 μL 2× enzyme master mix, 7.0 μL RNase free water, 1 μL of each primer (10 pM each), and 1 μL diluted template. The PCR was performed with an initial pre-incubation step for 15 min at 95° C., followed by 45 cycles of 95° C. for 15 s, annealing at 52° C. for 15 s, and extension at 72° C. for 10 s. Melting curve analysis was used to confirm formation of the expected PCR product, and products from all assays were additionally tested with 1.2% agarose gel electrophoresis to confirm the correct lengths. An inter-run calibrator was used, and a standard curve was created for each gene to obtain PCR efficiencies. Relative sample expression levels were calculated using Rotor-Gene 6000 Series Software 1.7, and were expressed relative to β-actin and corrected for between-run variability. Data for the experimental samples were expressed as a fold unit the internal control gene.
# (§3) In order to examine whether five ginsenosides affect the expression of ChAT related to the synthesis of acetylcholine and VAChT controlling extracellular secretion of acetylcholine, the present inventor analyzed the expression level of ChAT and VAChT after treating the five ginsenosides to N2a […] cells, respectively.
# VAChT = VAChT mRNA expression in N2a cells (RT-PCR); format: cell-based, mouse; conditions: single ginsenoside (FIG. 7B)
# Source text: as §1, §2, §3
# acetylcholine = conditions: Benishin et al., Pharmacol., 42: 223-229, 1991; cited from earlier work
Structure (SMILES),expression of ChAT mRNA (ChAT),expression of VAChT mRNA (VAChT),release of acetylcholine (ACh) from hippocampal slices (acetylcholine)
CC(C)=CCC[C@](C)(O[C@@H]1O[C@H](CO[C@@H]2O[C@H](CO)[C@@H](O)[C@H](O)[C@H]2O)[C@@H](O)[C@H](O)[C@H]1O)[C@H]1CC[C@]2(C)[C@@H]1[C@H](O)C[C@@H]1[C@@]3(C)CC[C@H](O[C@@H]4O[C@H](CO)[C@@H](O)[C@H](O)[C@H]4O[C@@H]4O[C@H](CO)[C@@H](O)[C@H](O)[C@H]4O)C(C)(C)[C@@H]3CC[C@]12C [ginsenoside Rb1],no significant increase,no significant increase,facilitate the release of acetylcholine
CC(C)=CCC[C@](C)(O[C@@H]1O[C@H](CO)[C@@H](O)[C@H](O)[C@H]1O)[C@H]1CC[C@]2(C)[C@@H]1[C@H](O)C[C@@H]1[C@@]3(C)CC[C@H](O)C(C)(C)[C@@H]3[C@@H](O[C@@H]3O[C@H](CO)[C@@H](O)[C@H](O)[C@H]3O)C[C@]12C [ginsenoside Rg1],no significant increase,no significant increase,–
